Read-outs that look alike come from different tables or passages of the source.
What was measured:
human PBMC T cells = test: cells; type: cell-based; details: read-out: T-cells (IC50)
IMPDH human type II = IMPDH human type II (Homo sapiens, UniProt P12268); test: biochemical
human PBMC B cells = test: cells; type: cell-based; details: read-out: B-cells (IC50)

Compound	IC50 (human PBMC T cells; Homo sapiens, 72 h) [nM]	Ki (IMPDH human type II; read-out: Ki) [nM]	IC50 (human PBMC B cells; Homo sapiens, 72 h) [nM]	Ki (IMPDH human type II) [nM]	IC50 (human PBMC T cells) [nM]	IC50 (human PBMC B cells) [nM]
COc1cc(NC(=O)Nc2cccc(CNC(=O)OCCCl)c2)ccc1-c1cnco1 [Compound 24]	> 1000	< 10	> 1000	–	–	–
COCC(C)OC(=O)NCc1cccc(NC(=O)Nc2ccc(-c3cnco3)c(OC)c2)c1 (stereo not drawn) [Compound 41]	100 to 1000	< 10	100 to 1000	–	–	–
CCCC(CC#N)OC(=O)NCc1cccc(NC(=O)Nc2ccc(-c3cnco3)c(OC)c2)c1 (stereo not drawn) [Compound 32]	100 to 1000	< 10	< 100	–	–	–
C[C@H](NC(=O)O[C@H]1CCOC1)c1cccc(NC(=O)Nc2ccc(C#N)c(Cl)c2)c1 [Compound 187]	100 to 1000	–	< 100	10 to 50	–	–
COc1cc(NC(=O)Nc2cccc(CNC(=O)OC(CCN3CCCCC3)c3ccccc3)c2)ccc1-c1cnco1 (stereo not drawn) [Compound 50]	> 1000	< 10	> 1000	–	–	–
COc1cc(NC(=O)Nc2cccc(CNC(=O)OC3COCC3OCC(=O)OC(C)(C)C)c2)ccc1-c1cnco1 (stereo not drawn) [Compound 70]	–	< 10	–	–	> 1000	> 1000
COc1cc(NC(=O)Nc2cccc(CNC(=O)OC(CN(CC(C)C)CC(C)C)c3ccccc3)c2)ccc1-c1cnco1 (stereo not drawn) [Compound 116]	> 1000	> 50	> 1000	–	–	–
COc1cc(NC(=O)Nc2cccc(CNC(=O)O[C@H](CO)CC#N)c2)ccc1-c1cnco1 [Compound 63]	100 to 1000	< 10	100 to 1000	–	–	–
CCN(CCC(OC(=O)NCc1cccc(NC(=O)Nc2ccc(-c3cnco3)c(OC)c2)c1)c1ccccc1)C(C)C (stereo not drawn) [Compound 129]	100 to 1000	> 50	100 to 1000	–	–	–
CC[C@H](CC#N)OC(=O)NCc1cccc(NC(=O)Nc2ccc(-c3cnco3)c(OC)c2)c1 [Compound 81]	100 to 1000	10 to 50	100 to 1000	–	–	–
CCC(CCC#N)COC(=O)NCc1cccc(NC(=O)Nc2ccc(-c3cnco3)c(OC)c2)c1 (stereo not drawn) [Compound 8]	100 to 1000	< 10	100 to 1000	–	–	–
CNCCC(OC(=O)NCc1cccc(NC(=O)Nc2ccc(-c3cnco3)c(OC)c2)c1)c1ccccc1 (stereo not drawn) [Compound 34]	> 1000	< 10	100 to 1000	–	–	–
COc1cc(NC(=O)Nc2cccc(CNC(=O)OC[C@H](CC#N)NC(=O)CC(C)(C)C)c2)ccc1-c1cnco1 [Compound 10]	100 to 1000	< 10	> 1000	–	–	–
COc1cc(NC(=O)Nc2cccc(CNC(=O)O[C@H](CN3CCOCC3)c3ccccc3)c2)ccc1-c1cnco1 [Compound 51]	100 to 1000	< 10	100 to 1000	–	–	–
CCC(CC#N)OC(=O)NC(C)c1cccc(NC(=O)Nc2ccc(-c3cnco3)c(OC)c2)c1 (stereo not drawn) [Compound 163]	< 100	10 to 50	< 100	–	–	–
CCN(CC)C[C@@H](OC(=O)NC(C)c1cccc(NC(=O)Nc2ccc(-c3cnco3)c(OC)c2)c1)c1ccccc1 (stereo partly drawn) [Compound 166]	100 to 1000	> 50	100 to 1000	–	–	–
CCCN(C[C@@H](OC(=O)NCc1cccc(NC(=O)Nc2ccc(-c3cnco3)c(OC)c2)c1)c1ccccc1)C(C)C [Compound 108]	100 to 1000	> 50	< 100	–	–	–
COc1cc(NC(=O)Nc2cccc(CNC(=O)OC(CCC#N)C(F)(F)F)c2)ccc1-c1cnco1 (stereo not drawn) [Compound 90]	100 to 1000	< 10	100 to 1000	–	–	–
CCC(OC(=O)NCc1cccc(NC(=O)Nc2ccc(-c3cnco3)c(OC)c2)c1)C1(C#N)CC1 (stereo not drawn) [Compound 103]	100 to 1000	> 50	< 100	–	–	–
COc1cc(NC(=O)Nc2cccc(CNC(=O)Oc3cccc(/C=C/C(=O)OC(C)(C)C)c3)c2)ccc1-c1cnco1 [Compound 74]	> 1000	–	> 1000	< 10	–	–
COc1cc(NC(=O)Nc2cccc(CNC(=O)OC(CCN(CC(C)C)C(C)C)c3ccccc3)c2)ccc1-c1cnco1 (stereo not drawn) [Compound 130]	100 to 1000	> 50	> 1000	–	–	–
COc1cc(NC(=O)Nc2cccc(CNC(=O)O[C@H](CN(CC3CC3)C(C)C)c3ccccc3)c2)ccc1-c1cnco1 [Compound 110]	100 to 1000	> 50	< 100	–	–	–
COc1cc(NC(=O)Nc2cccc(CNC(=O)OCCCOP(=O)(O)O)c2)ccc1-c1cnco1 [Compound 97]	< 100	10 to 50	< 100	–	–	–
CCN(CCC(OC(=O)NCc1cccc(NC(=O)Nc2ccc(-c3cnco3)c(OC)c2)c1)c1ccccc1)CC(C)C (stereo not drawn) [Compound 125]	100 to 1000	> 50	100 to 1000	–	–	–
CCN(CC)C[C@@H](CC#N)OC(=O)NCc1cccc(NC(=O)Nc2ccc(-c3cnco3)c(OC)c2)c1 [Compound 16]	–	< 10	–	–	> 1000	> 1000
CCC(CCCCO)OC(=O)NCc1cccc(NC(=O)Nc2ccc(-c3cnco3)c(OC)c2)c1 (stereo not drawn) [Compound 49]	100 to 1000	< 10	100 to 1000	–	–	–
